Measurements taken from patent US20250197641A1, “OPTICAL ABSORBENT” (priority 2023, published 2025).

Tests used:
Assay type in all cases: physicochemical
[1] = Absorption maximum measurement; settings: chloroform, about 10^-5 M
Experimental: The maximum absorption was evaluated by a conventional method. Specifically, the sample was dissolved in chloroform solvent at a concentration of about 10^−5 M and then evaluated using measuring equipment (Agilent, Varian Cary 4000).

[2] = Pyrolysis temperature (Td 5%) analysis by TGA; settings: 25-800° C., 10° C./min, N2
Experimental: The Td 5% is a value obtained through TGA (Thermogravimetric Analysis) analysis. It is the value (Td 5%) at a weight loss of 5% confirmed under the conditions of a temperature range of 25° C. to 800° C., a temperature increase rate of 10° C./min, and a nitrogen (N2) atmosphere of 60 cm^3/min.
Thermogravimetric Analysis (TGA) of the chemical compound was performed by using Scinco's TGA N-1000 equipment. The analysis was performed by using approximately 3 mg of sample (chemical compound) and the analysis was conducted under conditions of a temperature range of 25° C. to 800° C., a temperature increase rate of 10° C./min, and nitrogen (N2) atmosphere of 60 cm^3/min. The value at […] (Td 5%) was used as the Td decomposition temperature.

[3] = Solubility of the absorbent in methylene chloride; settings: room temperature (about 25° C.)
Experimental: The solubility of the absorbent was evaluated. Solubility was determined based on the following criteria by evaluating the solubility of the absorbent in the solvent (MC, Methylene Chloride) at room temperature (about 25° C.).

[4] = Transmittance of absorption membrane before and after reliability evaluation (Test Example 1)
Experimental: The transmittance spectrum was measured using a spectrophotometer (Manufacturer: Perkinelmer, Product Name: Lambda 750 Spectrophotometer) on a specimen obtained by cutting the measurement object (e.g., an absorption membrane) so that the width and height were 10 mm and 10 mm, respectively. The transmittance spectrum was measured for each wavelength according to the equipment manual. The specimen was placed on a straight line between a measuring beam of the spectrophotometer and a detector and the transmittance spectrum was confirmed by setting the incident angle of the measuring beam to 0°. The incident angle of 0° is a direction substantially parallel to the surface normal direction of the specimen. The average transmittance within a certain wavelength range in the transmittance spectrum is the result of measuring the transmittance at each wavelength while increasing the wavelength by 1 nm starting from the shortest wavelength in the wavelength range, and then calculating the arithmetic average of the measured transmittances. The maximum transmittance is the maximum transmittance among the transmittances measured while increasing the wavelength by 1 nm and the minimum transmittance is the minimum transmittance among the transmittances measured while increasing the wavelength by 1 nm. For example, the average transmittance within the wavelength range of 350 nm to 360 nm is the arithmetic mean of the transmittance measured at the wavelength of 350 nm, 351 nm, 352 nm, 353 nm, 354 nm, 355 nm, 356 nm, 357 nm, 358 nm, 359 nm, and 360 nm. The maximum transmittance within the wavelength range of 350 nm to 360 nm is the highest transmittance measured at wavelengths of 350 nm, 351 nm, 352 nm, 353 nm, 354 nm, 355 nm, 356 nm, 357 nm, 358 nm, 359 nm and 360 nm and the minimum transmittance within the wavelength range of 350 nm to 360 nm is the lowest transmittance among the transmittances measured at wavelengths of 350 nm, 351 nm, 352 nm, 353 nm, 354 nm, 355 nm, 356 nm, 357 nm, 358 nm, 359 nm, and 360 nm.
A coating solution was prepared by mixing silicone resin (Dow Chemical, RSN-0217), absorbent, and solvent (cyclohexanone) as resin components. The mixing ratio of the resin component, absorbent, and solvent was set to be 69.3:0.99:29.7 in weight ratio (resin:absorbent:solvent).
The coating solution was coated on a transparent substrate (a glass substrate manufactured by SCHOTT) and maintained at 140° C. for about 2 hours to form an absorption membrane with a thickness of about 6 μm.
Tables 2 and 3 below summarize the transmittance of the absorption membrane before and after reliability evaluation in the ultraviolet and near-infrared regions. The reliability evaluation is an evaluation of maintaining the absorption membrane at 85° C. and under 85% relative humidity condition for 120 hours. In Table 2, B refers to the result before performing the reliability evaluation and A refers to the result after performing the reliability evaluation. Additionally, in Table 2, λmax means the transmittance at the absorption maximum.
In Tables 2 and 3, Δ is the rate of change (%) of each characteristic before and after the reliability evaluation, calculated as 100×[…]/B, where […], B is the value indicated by B in Table 2. In Table 2, Tmax refers to the highest transmittance within the corresponding wavelength region, Tave refers to the average transmittance within the corresponding wavelength region, and Tmin refers to the minimum transmittance within the corresponding wavelength region.

[5] = Absorption spectra of absorption membrane before and after high temperature/high humidity evaluation (Test Example 2); settings: 85% relative humidity, 120 hours
Excerpt: FIGS. 4 to 6 are the absorption spectra of the absorption membranes prepared in Test Example 1 using the absorbents of Embodiments 1 to 3, respectively. FIGS. 7 to 9 are the absorption spectrum of the absorption membrane prepared in Test Example using the absorbents of Comparative Examples 1 to 3, respectively. In the FIGS., the spectra indicated before reliability is the result immediately after preparing the absorption membrane, and the spectra indicated after reliability is the result after high temperature/high humidity evaluation was performed on the absorption membrane. The high temperature/high humidity evaluation is an evaluation where the absorption membrane is maintained at a temperature of 85° C. under a relative humidity of 85% for 120 hours. In Tables 4 and 5, Af is the transmittance at the absorption maximum wavelength of the absorption membrane maintained at 85° C. under 85% relative humidity for 120 hours and λf is the absorption maximum wavelength for after case. Ai is the transmittance at the absorption maximum wavelength of the absorption membrane before being maintained at 85° C. under 85% relative humidity for 120 hours and λi is the absorption maximum wavelength for before case. In Tables 4 and 5, ΔA is a value calculated as 100×(Af−Ai)/Ai, and Δλ is a value calculated as 100×(λf−λi)λi.

[6] = change before/after 85° C., 85% RH, 120 hours
[7] = silicone resin membrane about 6 μm, before reliability evaluation
[8] = silicone resin membrane, after 85° C., 85% RH, 120 hours
[9] = absorption membrane after 85° C.
[10] = absorption membrane before 85° C.

CCCCN1/C(=C\C=C2/CCC(/C=C/C3=[N+](CCCC)c4ccccc4C3(C)C)=C2Cl)C(C)(C)c2ccccc21 [Comparative Example 3]
Maximum Absorption Wavelength [1]: 815 nm
Td 5% [2]: 186 °C
Solubility [3]: A (When solubility is 1 mass % or more)
425~465 nm Tave, Δ [4, 6]: −0.2%
425~465 nm Tmin, Δ [4, 6]: 0%
466~480 nm Tave, Δ [4, 6]: −0.9%
466~480 nm Tmin, Δ [4, 6]: −0.6%
480~560 nm Tave, Δ [4, 6]: −1.3%
λmax Tmax (transmittance at the absorption maximum), Δ [4, 6]: 11.4%
425~465 nm Tave, B [4, 7]: 87.3%
425~465 nm Tmin, B [4, 7]: 86.5%
466~480 nm Tave, B [4, 7]: 88.9%
466~480 nm Tmin, B [4, 7]: 88%
480~560 nm Tave, B [4, 7]: 90.4%
425~465 nm Tave, A [4, 8]: 87%
425~465 nm Tmin, A [4, 8]: 86.6%
466~480 nm Tave, A [4, 8]: 88%
466~480 nm Tmin, A [4, 8]: 87.5%
480~560 nm Tave, A [4, 8]: 89.2%
ΔA = 100×(Af−Ai)/Ai ([5]; 85° C.): 52.6%
Δλ = 100×(λf−λi)λi ([5]; 85° C.): −12%
Af, transmittance at the absorption maximum wavelength [5, 9]: 33.0%
λf, absorption maximum wavelength [5, 9]: 818 nm
Ai, transmittance at the absorption maximum wavelength [5, 10]: 21.6%
λi, absorption maximum wavelength [5, 10]: 819 nm
